# Experimental data taken from article PMC12519464, “Dual-Site Inhibition of SARS-CoV‑2 RNA-Dependent RNA Polymerase by Small Molecules Able to Block Viral Replication Identified through a Computer-Aided Drug Discovery Approach” (ACS Infectious Diseases, 2025).
# Biological target: SARS-CoV-2 nsp12/7/8 (RTC) complex (Severe acute respiratory syndrome coronavirus 2, UniProt P0DTD1)
# Assay: biochemical
# Format: biochemical
# Conditions: not given
row,Compound,IC50
1,CC(=O)OC(C)(C)/C=C/C(=O)[C@](C)(O)[C@H]1[C@H](O)C[C@@]2(C)[C@@H]3CC=C4[C@@H](C=C(O)C(=O)C4(C)C)[C@]3(C)C(=O)C[C@]12C [Cucurbitacin E],47.2 ± 20.5 µM
2,C[C@@H]1C(=O)O[C@H](C)[C@H]1C[C@@H](O)[C@](C)(O)[C@H]1CC[C@@]2(O)C3=CC(=O)[C@@H]4C[C@@H](O)[C@@H](O)C[C@]4(C)[C@H]3CC[C@]12C [Cyasterone],> 100 µM
3,"CC(=O)c1nn(CC(=O)N2C[C@H](F)C[C@H]2C(=O)Nc2cccc(Br)n2)c2ccc(-c3cnc(C)nc3)cc12 [Danicopan, reference compound]",> 100 µM
4,"Cc1ccc(-n2nc(C(C)(C)C)cc2NC(=O)Nc2ccc(OCCN3CCOCC3)c3ccccc23)cc1 [Doramapimod, reference compound]",> 100 µM
5,"C[C@]12C=CC(=O)N[C@@H]1CC[C@@H]1[C@@H]2CC[C@]2(C)[C@@H](C(=O)Nc3cc(C(F)(F)F)ccc3C(F)(F)F)CC[C@@H]12 [Dutasteride, reference compound]",> 100 µM
6,"CC1(C)[C@@H](O)CC[C@]2(C)[C@H]3C(=O)C=C4[C@@H]5C[C@@](C)(C(=O)O)CC[C@]5(C)CC[C@@]4(C)[C@]3(C)CC[C@@H]12 [Enoxolone, reference compound]",35.5 ± 4.61 µM
7,"CC1=C(/C=C/C(C)=C/C=C/C(C)=C/C(=O)Nc2ccc(O)cc2)C(C)(C)CCC1 [Fenretinide, reference compound]",> 100 µM
8,CC(C)=CCC[C@](C)(O[C@@H]1O[C@H](CO)[C@@H](O)[C@H](O)[C@H]1O)[C@H]1CC[C@]2(C)[C@@H]1[C@H](O)C[C@@H]1[C@@]3(C)CC[C@H](O)C(C)(C)[C@@H]3[C@@H](O)C[C@]12C [Ginsenoside F1],> 100 µM
9,CC(C)=CC/C=C(\C)[C@H]1CC[C@]2(C)[C@@H]1[C@H](O)C[C@@H]1[C@@]3(C)CC[C@H](O[C@@H]4O[C@H](CO)[C@@H](O)[C@H](O)[C@H]4O[C@@H]4O[C@H](CO)[C@@H](O)[C@H](O)[C@H]4O)C(C)(C)[C@@H]3CC[C@]12C [Ginsenoside Rg5],> 100 µM
10,C[C@@H]1O[C@@H](O[C@H]2CC[C@]3(C=O)[C@H]4CC[C@]5(C)[C@@H](c6ccc(=O)oc6)CC[C@]5(O)[C@@H]4CC[C@]3(O)C2)[C@H](O)[C@H](O)[C@H]1O[C@@H]1O[C@H](CO)[C@@H](O)[C@H](O)[C@H]1O [Hellebrin],> 100 µM
11,"C[C@]1(O)C[C@@H](c2nc(-c3ccc4ccc(-c5ccccc5)nc4c3)c3c(N)nccn32)C1 [Linsitinib, reference compound]",> 100 µM
12,C=C(C)[C@@H]1CC[C@]2(C)CC[C@]3(C)[C@H](CC[C@@H]4[C@@]5(C)CCC(=O)C(C)(C)[C@@H]5CC[C@]43C)[C@@H]12 [Lupenone],> 100 µM
13,C=C(C)[C@@H]1CC[C@]2(C)CC[C@]3(C)[C@H](CC[C@@H]4[C@@]5(C)CC[C@H](O)C(C)(C)[C@@H]5CC[C@]43C)[C@@H]12 [Lupeol],> 100 µM
14,C[C@H]1[C@H](C)CC[C@]2(C(=O)O)CC[C@]3(C)C(=CC[C@@H]4[C@@]5(C)C[C@@H](O)[C@H](O)[C@@](C)(CO)[C@@H]5[C@H](O)C[C@]43C)[C@H]12 [Madecassic Acid],> 100 µM
15,CC1(C)CC[C@]2(C(=O)O)CC[C@]3(C)C(=CC[C@@H]4[C@@]5(C)C[C@@H](O)[C@H](O)C(C)(C)[C@@H]5CC[C@]43C)[C@@H]2C1 [Maslinic Acid],> 100 µM
16,CC[C@@]1([C@@H]2O[C@@H]([C@H]3O[C@@](O)(CO)[C@H](C)C[C@@H]3C)C[C@@H]2C)CC[C@H]([C@]2(C)CC[C@]3(C[C@H](O)[C@@H](C)[C@@H]([C@@H](C)[C@@H](OC)[C@H](C)C(=O)O)O3)O2)O1 [Monensin],> 100 µM
17,"O=C(c1cccc(-c2nc3ccccc3[nH]2)n1)N1CCN(C(=O)c2cccc(-c3nc4ccccc4[nH]3)n2)CC1 [Omilancor, reference compound]",> 100 µM
18,C=C(CC[C@@H](C(=O)O)[C@H]1[C@H](O)C[C@@]2(C)C3=C(CC[C@]12C)[C@@]1(C)CC[C@H](OC(C)=O)C(C)(C)[C@@H]1CC3)C(C)C [Pachymic acid],> 100 µM
19,C[C@@H]1CC[C@]2(C(=O)O)CC[C@]3(C)C(=CC[C@@H]4[C@@]5(C)CC[C@H](O)C(C)(C)[C@@H]5CC[C@]43C)[C@@H]2[C@]1(C)O [Pomolic acid],> 100 µM

# Same assay, conditions: primer-extension PAGE assay, 150 nM RTC, 5% DMSO, 30 min preincubation at 37 °C; mean and SD of at least 3 independent experiments
row,Compound,IC50
1,"CC[C@H](CC[C@@H](C)[C@H]1CC[C@H]2[C@@H]3CC=C4C[C@@H](O[C@@H]5O[C@H](CO)[C@@H](O)[C@H](O)[C@H]5O)CC[C@]4(C)[C@H]3CC[C@]12C)C(C)C [Daucosterol, reference compound]",> 100 µM
2,C[C@@H]1CC[C@@]2(OC1)O[C@H]1C[C@H]3[C@@H]4CC=C5C[C@@H](O[C@@H]6O[C@H](CO)[C@@H](O)[C@H](O)[C@H]6O)CC[C@]5(C)[C@H]4CC[C@]3(C)[C@H]1[C@@H]2C [Disogluside],> 100 µM
3,"C[C@H](NC(=O)c1c(N)nn2cccnc12)c1cc2cccc(C#Cc3cnn(C)c3)c2c(=O)n1-c1ccccc1 [Eganelisib, reference compound]",> 100 µM
4,"C[C@H]1CN(C2COC2)CCN1c1ccc(Nc2cc(-c3ccnc(N4CCn5c(cc6c5CC(C)(C)C6)C4=O)c3CO)cn(C)c2=O)nc1 [Fenebrutinib, reference compound]",> 100 µM
5,"CN1C(=O)c2c(nn(Cc3ccc(-c4cccc(F)n4)cc3)c2Nc2ccccc2)N2C1=N[C@@H]1CCC[C@@H]12 [Lenrispodun, reference compound]",24.2 ± 8.68 µM
6,"CS(=O)(=O)c1cccc(C[C@H](NC(=O)c2c(Cl)cc3c(c2Cl)CCN(C(=O)c2ccc4ccoc4c2)C3)C(=O)O)c1 [Lifitegrast, reference compound]",> 100 µM
7,"Cc1ccc(F)cc1C(=O)Nc1ccc(C(=O)N2Cc3cccn3Cc3ccccc32)c(Cl)c1 [Lixivaptan, reference compound]",> 100 µM
8,"COc1cccc(OC)c1-c1cc(C(=O)NC2(C(=O)O)C3CC4CC(C3)CC2C4)nn1-c1ccnc2cc(Cl)ccc12 (stereo not shown) [Meclinertant, reference compound]",15.4 ± 2.77 µM
9,"Cc1ccc(C(=O)Nc2ccc(Oc3cc4cnn(C)c4cc3-c3cn[nH]c3)c(F)c2)c(=O)n1-c1ccc(F)cc1 [Merestinib, reference compound]",> 100 µM
10,"CC1(C)CC[C@]2(NC(=O)C(C)(F)F)CC[C@]3(C)[C@H](C(=O)C=C4[C@@]5(C)C=C(C#N)C(=O)C(C)(C)[C@@H]5CC[C@]43C)[C@@H]2C1 [Omaveloxolone, reference compound]",13 ± 4.28 µM
11,"Cc1cnc(C(=O)N[C@H]2CCCCC/C=C\[C@@H]3C[C@@]3(C(=O)NS(=O)(=O)C3CC3)NC(=O)[C@@H]3C[C@@H](Oc4nc5ccccc5c5ccccc45)CN3C2=O)cn1 [Paritaprevir, reference compound]",42.2 ± 9.97 µM

# Same assay, conditions: read-out: IC50: compound concentration required to inhibit by 50% the SARS-CoV-2 RTC enzymatic activity
row,Compound,IC50
1,CC(C)(O)[C@@H]1CC[C@](C)([C@H]2[C@@H](O)C[C@@]3(C)[C@@H]4C[C@H](O)[C@H]5C(C)(C)[C@@H](O)CC[C@@]56C[C@@]46CC[C@]23C)O1 [Cycloastragenol],> 100 µM
2,"CC(C)(O)CC[C@H]1OC(C)(C)O[C@]1(C)[C@H]1CC[C@@]2(O)C3=CC(=O)[C@@H]4C[C@H]5OC(C)(C)O[C@H]5C[C@]4(C)[C@H]3CC[C@]12C [Ecdysterone 2,3:20,22-diacetonide]",> 100 µM
3,"CC(C)C1=C2[C@H]3CC[C@@H]4[C@@]5(C)CC[C@H](OC(=O)CC(C)(C)C(=O)O)C(C)(C)[C@@H]5CC[C@@]4(C)[C@]3(C)CC[C@@]2([C@@H](O)CN(CCN(C)C)Cc2ccc(Cl)cc2)CC1=O [Gsk-2838232, reference compound]",> 100 µM
4,"Cc1ccccc1NC(=O)Nc1ccc(CN2C(=O)N([C@@H](CC(C)C)C(=O)N[C@@H](CC(=O)O)c3ccccc3)C(=O)C2(C)C)cc1 [HMR1031, reference compound]",91.2 ± 4.88 µM
5,C[C@H]1CC[C@@H]2N(C1)C[C@H]1[C@@H]3C[C@H]4[C@@H](CC(=O)[C@H]5C[C@@H](O[C@@H]6O[C@H](CO)[C@@H](O)[C@H](O)[C@H]6O)CC[C@@]54C)[C@@H]3CC[C@H]1[C@]2(C)O [Imperialine 3-beta-D-glucoside],> 100 µM
6,CC(C)=CCc1c(-c2ccc(O)cc2O)oc2c([C@H]3C=C(C)C[C@@H](c4ccc(O)cc4O)[C@@H]3C(=O)c3ccc(O)cc3O)c(O)cc(O)c2c1=O [Kuwanon G],41 ± 6.18 µM
7,CC(C)=CCc1c(O)ccc(C(=O)[C@@H]2[C@@H](c3c(O)cc(O)c4c(=O)c(CC=C(C)C)c(-c5ccc(O)cc5O)oc34)C=C(C)C[C@H]2c2ccc(O)cc2O)c1O [Kuwanon H],66.2 ± 1.81 µM
8,C=C(C)[C@@H]1CC[C@]2(C)CC[C@]3(C)[C@H](CC[C@@H]4[C@@]5(C)CC[C@H](OC(C)=O)C(C)(C)[C@@H]5CC[C@]43C)[C@@H]12 [Lupeol Acetate],> 100 µM
9,C[C@H](CC[C@@H](O[C@@H]1O[C@H](CO)[C@@H](O)[C@H](O)[C@H]1O)C(C)(C)O)[C@H]1CC[C@@]2(C)[C@@H]3CC=C4[C@@H](CC[C@H](O[C@@H]5O[C@H](CO)[C@@H](O)[C@H](O)[C@H]5O)C4(C)C)[C@]3(C)[C@H](O)C[C@]12C [Mogroside IIe],> 100 µM
10,"CC#C/C(=N/OC[C@H]1COCCN1)c1ccc2ncnc(Nc3ccc(OCc4cccc(F)c4)c(Cl)c3)c2c1 [N-[3-chloro-4-[(3-fluorophenyl)methoxy]phenyl]-6-[(E)-N-[[(3R)-morpholin-3-yl]methoxy]-C-prop-1-ynylcarbonimidoyl]quinazolin-4-amine, reference compound]",> 100 µM
11,O=C(NCC(O)CNC(=O)/C(=C\c1ccco1)NC(=O)c1ccccc1)/C(=C\c1ccco1)NC(=O)c1ccccc1 [N-[(E)-3-[[3-[[(E)-2-benzamido-3-(furan-2-yl)prop-2-enoyl]amino]-2-hydroxypropyl]amino]-1-(furan-2-yl)-3-oxoprop-1-en-2-yl]benzamide],90.1 ± 14 µM
12,CC1(C)CC[C@]2(C(=O)O)CC[C@]3(C)C(=CC[C@@H]4[C@@]5(C)CC[C@H](O[C@@H]6O[C@H](C(=O)O)[C@@H](O[C@@H]7O[C@@H](CO)[C@H](O)[C@H]7O)[C@H](O)[C@H]6O)C(C)(C)[C@@H]5CC[C@]43C)[C@@H]2C1 [Narcissiflorine],17.2 ± 5.96 µM
13,CC1=C2C[C@H]3[C@@H](CC(=O)[C@H]4C[C@@H](O)CC[C@@]43C)[C@@H]2CC[C@]12O[C@@H]1C[C@H](C)CN[C@H]1[C@H]2C [Peimisine],> 100 µM
